Assay results: patent US20240270695A1, “COMPOUNDS, COMPOSITIONS AND METHODS OF TREATING DISORDERS” (Chengdu Anticancer Bioscience LTD, priority 2021, published 2024)

Legend:
[1] = tested on: RPE-Neo or RPE-MYC or RPE-MYC expressing an EGFP-Histone 2B fusion protein; assay: Phenotypic screening assay (arrest in mitosis, change in DNA content, cell death; GE IN-Cell Analyzer 2000); type: cell-based; settings: Homo sapiens, compounds 20 nM to 20 μM, 24, 48 or 72 hours
[2] = tested on: RPE-Neo or RPE-MYC or RPE-MYC expressing an EGFP-Histone 2B fusion protein; assay: MTT assays of cellular proliferation; type: cell-based; settings: Homo sapiens, min. effective conc., read-out: Proliferative arrest (<50%)
[3] = read-out: Min. Effective conc. for Polyploidy (≥10%)
[4] = min. effective conc., read-out: Cell Death (>30%)
[5] = min. effective conc., read-out: Mitotic Arrest (≥10%)

| SMILES | minimal effective concentration [1, 3] | minimal effective concentration [1, 4] | minimal effective concentration [1, 5] | minimal effective concentration [2] |
| --- | --- | --- | --- | --- |
| CNC(=O)C1=C(O)c2ccccc2N(Cc2ccc(C(C)=O)cc2)C(=O)C1 [Example 90, 1-(4-acetylbenzyl)-5-hydroxy-N-methyl-2-oxo-2,3-dihydro-1H-benzo[b]azepine-4-carboxamide] | 30 to 1000 µM | 30 to 1000 µM | 30 to 1000 µM | 30 to 1000 µM |
| CNC(=O)C1=C(O)c2ccccc2N(Cc2ccc(OC)cc2)C(=O)C1 [Example 91, 5-hydroxy-1-(4-methoxybenzyl)-N-methyl-2-oxo-2,3-dihydro-1H-benzo[b]azepine-4-carboxamide] | 10 to 30 µM | 10 to 30 µM | 1 to 10 µM | 10 to 30 µM |
| CNC(=O)C1=C(O)c2ccccc2N(Cc2cccc(OC)c2)C(=O)C1 [Example 92, 5-hydroxy-1-(3-methoxybenzyl)-N-methyl-2-oxo-2,3-dihydro-1H-benzo[b]azepine-4-carboxamide] | 10 to 30 µM | 10 to 30 µM | 10 to 30 µM | 10 to 30 µM |
| CNC(=O)C1=C(O)c2ccccc2N(Cc2ccccc2OC)C(=O)C1 [Example 93, 5-hydroxy-1-(2-methoxybenzyl)-N-methyl-2-oxo-2,3-dihydro-1H-benzo[b]azepine-4-carboxamide] | 10 to 30 µM | 10 to 30 µM | 10 to 30 µM | 10 to 30 µM |
| CNC(=O)C1CC(=O)N(Cc2ccc(OC(F)F)cc2)c2ccccc2C1=O (stereo not shown) [Example 94, 1-(4-(difluoromethoxy)benzyl)-5-hydroxy-N-methyl-2-oxo-2,3-dihydro-1H-benzo[b]azepine-4-carboxamide] | 30 to 1000 µM | 30 to 1000 µM | 30 to 1000 µM | 30 to 1000 µM |
| CNC(=O)C1=C(O)c2ccccc2N(c2ccc(OC)c(F)c2)C(=O)C1 [Example 95, 1-(3-fluoro-4-methoxyphenyl)-5-hydroxy-N-methyl-2-oxo-2,3-dihydro-1H-benzo[b]azepine-4-carboxamide] | 10 to 30 µM | 10 to 30 µM | 1 to 10 µM | 10 to 30 µM |
| CNC(=O)C1=C(O)c2ccccc2N(CCc2ccc(OC)cc2)C(=O)C1 [Example 96, 5-hydroxy-1-(4-methoxyphenethyl)-N-methyl-2-oxo-2,3-dihydro-1H-benzo[b]azepine-4-carboxamide] | 30 to 1000 µM | 30 to 1000 µM | 30 to 1000 µM | 30 to 1000 µM |
| CNC(=O)C1=C(O)c2ccccc2N(Cc2cc(C)cc(C)c2)C(=O)C1 [Example 97, 1-(3,5-dimethylbenzyl)-5-hydroxy-N-methyl-2-oxo-2,3-dihydro-1H-benzo[b]azepine-4-carboxamide] | 1 to 10 µM | 1 to 10 µM | 1 to 10 µM | 1 to 10 µM |
| CNC(=O)C1=C(O)c2ccccc2N(Cc2cccc(C)c2C)C(=O)C1 [Example 98, 1-(2,3-dimethylbenzyl)-5-hydroxy-N-methyl-2-oxo-2,3-dihydro-1H-benzo[b]azepine-4-carboxamide] | 10 to 30 µM | 30 to 1000 µM | 10 to 30 µM | 30 to 1000 µM |
| CNC(=O)C1CC(=O)N(Cc2c(C)cccc2C)c2ccccc2C1=O (stereo not shown) [Example 99, 1-(2,6-dimethylbenzyl)-5-hydroxy-N-methyl-2-oxo-2,3-dihydro-1H-benzo[b]azepine-4-carboxamide] | 30 to 1000 µM | 30 to 1000 µM | 30 to 1000 µM | 30 to 1000 µM |
| CNC(=O)C1CC(=O)N(Cc2ccc(C)c(C)c2)c2ccccc2C1=O (stereo not shown) [Example 100, 1-(3,4-dimethylbenzyl)-5-hydroxy-N-methyl-2-oxo-2,3-dihydro-1H-benzo[b]azepine-4-carboxamide] | 1 to 10 µM | 1 to 10 µM | 1 to 10 µM | 1 to 10 µM |
| CNC(=O)C1CC(=O)N(Cc2ccc(C)cc2C)c2ccccc2C1=O (stereo not shown) [Example 101, 1-(2,4-dimethylbenzyl)-5-hydroxy-N-methyl-2-oxo-2,3-dihydro-1H-benzo[b]azepine-4-carboxamide] | 1 to 10 µM | 1 to 10 µM | 1 to 10 µM | 1 to 10 µM |
| CNC(=O)C1=C(O)c2ccccc2N(Cc2ccc(F)c(F)c2)C(=O)C1 [Example 102, 1-(3,4-difluorobenzyl)-5-hydroxy-N-methyl-2-oxo-2,3-dihydro-1H-benzo[b]azepine-4-carboxamide] | 30 to 1000 µM | 30 to 1000 µM | 30 to 1000 µM | 30 to 1000 µM |
| CNC(=O)C1=C(O)c2ccccc2N(Cc2cc(F)cc(F)c2)C(=O)C1 [Example 104, 1-(3,5-difluorobenzyl)-5-hydroxy-N-methyl-2-oxo-2,3-dihydro-1H-benzo[b]azepine-4-carboxamide] | 30 to 1000 µM | 30 to 1000 µM | 30 to 1000 µM | 30 to 1000 µM |
| CNC(=O)C1=C(O)c2ccccc2N(Cc2cc(F)c(F)c(F)c2)C(=O)C1 [Example 105, 5-hydroxy-N-methyl-2-oxo-1-(3,4,5-trifluorobenzyl)-2,3-dihydro-1H-benzo[b]azepine-4-carboxamide] | 30 to 1000 µM | 30 to 1000 µM | 30 to 1000 µM | 30 to 1000 µM |
| CNC(=O)C1=C(O)c2ccccc2N(Cc2cc(F)ccc2F)C(=O)C1 [Example 106, 1-(2,5-difluorobenzyl)-5-hydroxy-N-methyl-2-oxo-2,3-dihydro-1H-benzo[b]azepine-4-carboxamide] | 30 to 1000 µM | 30 to 1000 µM | 30 to 1000 µM | 30 to 1000 µM |
| CNC(=O)C1=C(O)c2ccccc2N(Cc2cccc(F)c2F)C(=O)C1 [Example 107, 1-(2,3-difluorobenzyl)-5-hydroxy-N-methyl-2-oxo-2,3-dihydro-1H-benzo[b]azepine-4-carboxamide] | 30 to 1000 µM | 30 to 1000 µM | 30 to 1000 µM | 30 to 1000 µM |
| CNC(=O)C1CC(=O)N(Cc2c(F)cccc2F)c2ccccc2C1=O (stereo not shown) [Example 108, 1-(2,6-difluorobenzyl)-5-hydroxy-N-methyl-2-oxo-2,3-dihydro-1H-benzo[b]azepine-4-carboxamide] | 30 to 1000 µM | 30 to 1000 µM | 30 to 1000 µM | 30 to 1000 µM |
| CNC(=O)C1=C(O)c2ccccc2N(Cc2ccc(F)c(C)c2)C(=O)C1 [Example 109, 1-(4-fluoro-3-methylbenzyl)-5-hydroxy-N-methyl-2-oxo-2,3-dihydro-1H-benzo[b]azepine-4-carboxamide] | 10 to 30 µM | 30 to 1000 µM | 10 to 30 µM | 30 to 1000 µM |
| CNC(=O)C1=C(O)c2ccccc2N(Cc2ccc(OC)c(F)c2)C(=O)C1 [Example 111, 1-(3-fluoro-4-methoxybenzyl)-5-hydroxy-N-methyl-2-oxo-2,3-dihydro-1H-benzo[b]azepine-4-carboxamide] | 1 to 10 µM | 1 to 10 µM | 1 to 10 µM | 1 to 10 µM |
| CNC(=O)C1=C(O)c2ccccc2N(Cc2ccc(F)c(OC)c2)C(=O)C1 [Example 112, 1-(4-fluoro-3-methoxybenzyl)-5-hydroxy-N-methyl-2-oxo-2,3-dihydro-1H-benzo[b]azepine-4-carboxamide] | 1 to 10 µM | 1 to 10 µM | 1 to 10 µM | 1 to 10 µM |
| CNC(=O)C1=C(O)c2ccccc2N(Cc2cccc(OC)c2F)C(=O)C1 [Example 113, 1-(2-fluoro-3-methoxybenzyl)-5-hydroxy-N-methyl-2-oxo-2,3-dihydro-1H-benzo[b]azepine-4-carboxamide] | 10 to 30 µM | 10 to 30 µM | 10 to 30 µM | 10 to 30 µM |
| CNC(=O)C1=C(O)c2ccccc2N(Cc2cc(F)ccc2OC)C(=O)C1 [Example 114, 1-(5-fluoro-2-methoxybenzyl)-5-hydroxy-N-methyl-2-oxo-2,3-dihydro-1H-benzo[b]azepine-4-carboxamide] | 1 to 10 µM | 1 to 10 µM | 1 to 10 µM | 1 to 10 µM |
| CNC(=O)C1=C(O)c2ccccc2N(Cc2cc(F)ccc2C)C(=O)C1 [Example 115, 1-(5-fluoro-2-methylbenzyl)-5-hydroxy-N-methyl-2-oxo-2,3-dihydro-1H-benzo[b]azepine-4-carboxamide] | 30 to 1000 µM | 30 to 1000 µM | 10 to 30 µM | 30 to 1000 µM |
| CNC(=O)C1=C(O)c2ccccc2N(Cc2ccc(F)c(Cl)c2)C(=O)C1 [Example 116, 1-(3-chloro-4-fluorobenzyl)-5-hydroxy-N-methyl-2-oxo-2,3-dihydro-1H-benzo[b]azepine-4-carboxamide] | 30 to 1000 µM | 30 to 1000 µM | 30 to 1000 µM | 30 to 1000 µM |
